Laboratory results from patent publication US20240192197A1, “NOVEL SCREENING SYSTEM FOR DRUG TARGET ANTAGONIST BASED ON CELL LIFE/DEATH PHENOTYPE” (CENTER FOR EXCELLENCE IN MOLECULAR CELL SCIENCE, CHINESE …, priority 2021, published 2024).

Biological target: T1, FKBP12(F36V)-ΔCASP9 fusion protein (Homo sapiens, UniProt P55211+P62942, F37V)
T1 construct: expressed in transfected cells
Assay: Verification of screening cell lines: AP1903-induced death of cells expressing target protein-FKBP12(F36V)-ΔCASP9 fusion
Type: cell-based
Conditions: no target protein degradation agent present
Excerpt: The screening system of the F-C fusion protein of the present invention can be applied to important targets of various diseases.

T1 sequence (P62942+P55211 fused P62942:F37V): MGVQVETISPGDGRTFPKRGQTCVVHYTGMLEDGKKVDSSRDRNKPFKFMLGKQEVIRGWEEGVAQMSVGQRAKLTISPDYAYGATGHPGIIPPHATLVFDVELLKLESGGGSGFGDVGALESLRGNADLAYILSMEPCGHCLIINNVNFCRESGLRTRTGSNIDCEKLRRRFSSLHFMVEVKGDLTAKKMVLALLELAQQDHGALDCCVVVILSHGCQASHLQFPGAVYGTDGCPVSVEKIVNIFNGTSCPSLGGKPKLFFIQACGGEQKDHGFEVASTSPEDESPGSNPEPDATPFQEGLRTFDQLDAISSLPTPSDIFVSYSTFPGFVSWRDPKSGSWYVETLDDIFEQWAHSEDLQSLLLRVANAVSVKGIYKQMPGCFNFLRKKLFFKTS

Question: CC[C@H](C(=O)N1CCCC[C@H]1C(=O)O[C@H](CCc1ccc(OC)c(OC)c1)c1cccc(OCC(=O)NCCNC(=O)COc2cccc([C@@H](CCc3ccc(OC)c(OC)c3)OC(=O)[C@@H]3CCCCN3C(=O)[C@@H](CC)c3cc(OC)c(OC)c(OC)c3)c2)c1)c1cc(OC)c(OC)c(OC)c1 [AP1903] was tested. Which “state of cells expressing target protein-FKBP12(F36V)-ΔCASP9 fusion after AP1903” value did it give?
Answer: cells are dead
